{"source": "patent US20050244502A1", "about": "“Composition for enhancing absorption of a drug and method” (priority 2004, published 2005)", "key": {"[1]": {"experiment": "in vivo", "conditions": "rat, 1 mg/kg", "excerpt": "A dosing solution of DDAVP in water, C971P, LPC or C971P/LPC was directly injected into a 10-cm segment of rat colon. Blood was collected over a 2 hr period to assess the extent of systemic absorption from the various formulations."}, "[2]": {"experiment": "in vitro", "conditions": "human"}, "[3]": {"test_system": "Calu-3 cells", "experiment": "Permeability (Papp) of DDAVP across Calu-3 cell monolayers on Transwell filters", "conditions": "for additive permeability enhancement or change in epithelial resistance in the presence of Carbopol polymers (in words): enhancer with Carbopol polymers (Example 11)"}, "[4]": {"test_system": "Calu-3 cells", "experiment": "Acute cytotoxicity assay (Alamar Blue) in Calu-3 cells", "assay_type": "cell-based, human", "excerpt": "FIG. 2 depicts an Alamar Blue Assay—Black bar indicates the % of the cell survival after 2 hrs treatment of LPC at 0-0.25%; gray bar indicates the combination of LPC with 0.5% of C971P.\nThis assay is based on the ability of live cells to enzymatically reduce Alamar blue dye which indicates the relative percentage of cells that survive the exposure to the various treatments. Calu-3 cells exposed to buffer for 2 hr were used as the positive control with 100% cell survival."}, "[5]": {"experiment": "Intra-nasal DADLE absorption in rabbits", "assay_type": "in vivo", "conditions": "DADLE 1 mg/kg via syringe microsprayer in rabbit nostril", "excerpt": "Intra-nasal delivery of the model pentapepdide DADLE in water, C971P, LPC or C971P/LPC formulation was studied in rabbits. […] The C971P/LPC formulation enhanced DADLE absorption by >50% compared to LPC alone."}, "[6]": {"test_system": "Calu-3 cells", "experiment": "TEER measurement (cell integrity and reversibility) in Calu-3 cells", "assay_type": "cell-based, human", "excerpt": "The asterisk (delete scatters with) (*) represent (delete marker present) those samples where TEER recovered to the original level within 12 hrs after washout of the treatment.\nTransepithelial electrical resistance (TEER) measures the integrity of the epithelial barrier. […] Return of the TEER values to initial levels indicates recovery to baseline barrier properties. TEER measurements were done in confluent highly resistant Calu-3 cells cultured in Transwell filters with handheld STX-2 electrodes connected to EVOM Voltohmmeter. […] After the removal of apical treatment, TEER recovered to the original values."}}, "data": [{"compound": "NC(=O)CC[C@@H]1NC(=O)[C@H](Cc2ccccc2)NC(=O)[C@H](Cc2ccc(O)cc2)NC(=O)CCSSC[C@@H](C(=O)N2CCC[C@H]2C(=O)N[C@H](CCCN=C(N)N)C(=O)NCC(N)=O)NC(=O)[C@H](CC(N)=O)NC1=O", "note": "[DDAVP, 1 deamino-8-D-arginin-vasopressin]", "values": [{"measurement": "bioavailability", "setting": "[1]", "result": "0.1 ± 0.1", "unit": "%"}, {"measurement": "Papp", "setting": "[2]", "result": "0.04 ± 0.003", "unit": "×10⁻⁶ cm/s"}]}, {"compound": "CCCCCCCCCC(=O)[O-].[Na+]", "note": "[sodium caprate]", "values": [{"measurement": "additive permeability enhancement or change in epithelial resistance in the presence of Carbopol polymers (in words)", "setting": "[3]", "result": "do not show additive permeability enhancement advantage or change in epithelial resistance"}, {"measurement": "effect of Carbopol 971P on acute cytotoxicity of the enhancer (in words)", "setting": "[4]; enhancer combined with Carbopol 971P, Alamar Blue, Calu-3 cells", "result": "failed to reduce the acute cytotoxicity"}]}, {"compound": "L-α-lysophosphatidylcholine [LPC]", "values": [{"measurement": "DDAVP Papp increase compared with 0.5% C971P alone", "setting": "[3]; LPC 0.01-0.25% combined with 0.5% C971P, dose-dependent, Calu-3 cells", "result": "up to 32 fold"}, {"measurement": "DADLE exposure, times higher than water control", "setting": "[5]", "result": 2.4, "unit": "times"}, {"measurement": "cell survival", "setting": "[4]; 0.05% LPC alone, 2 hr, buffer control = 100%", "result": "About 82%"}, {"measurement": "cell survival", "setting": "[4]; 0.05% LPC with C971P (0.5%) in the formulation, 2 hr", "result": 95, "unit": "%"}, {"measurement": "cell survival", "setting": "[4]; 0.1% LPC alone, 2 hr", "result": 41, "unit": "%"}, {"measurement": "cell survival", "setting": "[4]; 0.1% LPC in the presence of C971P (0.5%), 2 hr", "result": "> 90", "unit": "%"}, {"measurement": "cell survival (in words)", "setting": "[4]; LPC alone 0-0.25%, 2 hr", "result": "dose-dependent reduction in survival"}, {"measurement": "TEER recovery after removal of treatment (in words)", "setting": "[6]; 0.05% LPC with C971P also present", "result": "recovered"}, {"measurement": "TEER change (in words)", "setting": "[6]; LPC alone, 2 hr treatment", "result": "dramatic drop in TEER"}, {"measurement": "extent of TEER drop (in words)", "setting": "[6]; LPC with C971P present in the formulation, 2 hr treatment", "result": "significantly reduced"}]}, {"compound": "Phosphatidylcholine [Lecithin]", "values": [{"measurement": "DDAVP permeability enhancement or TEER drop (in words)", "setting": "[3]; Carbopol added along with phosphatidylcholine", "result": "no significant enhancement in permeability or drop in TEER"}, {"measurement": "DDAVP Permeability", "setting": "[3]; Lecithin 1 mM", "result": "0.045 ± 0.003", "unit": "×10⁻⁶ cm/s"}, {"measurement": "DDAVP Permeability", "setting": "[3]; Lecithin 2 mM", "result": "0.044 ± 0.003", "unit": "×10⁻⁶ cm/s"}, {"measurement": "DDAVP Permeability", "setting": "[3]; Lecithin 5 mM", "result": "0.044 ± 0.004", "unit": "×10⁻⁶ cm/s"}, {"measurement": "additive permeability enhancement or change in epithelial resistance in the presence of Carbopol polymers (in words)", "setting": "[3]", "result": "do not show additive permeability enhancement advantage or change in epithelial resistance"}, {"measurement": "DDAVP permeability enhancement or TEER drop (in words)", "setting": "[3]; phosphatidylcholine alone, Calu-3 cells", "result": "failed to show any measurable enhancement or TEER drop"}, {"measurement": "TEER after 2 hr (% initial)", "setting": "[6]; Lecithin 1 mM", "result": "No change"}, {"measurement": "TEER after 2 hr (% initial)", "setting": "[6]; Lecithin 2 mM", "result": "No change"}, {"measurement": "TEER after 2 hr (% initial)", "setting": "[6]; Lecithin 5 mM", "result": "No change"}]}]}
